{
  "source": "patent US10765716B2",
  "about": "“Obesity treatment” (priority 2017, dated 2020)",
  "assay_type_in_all_cases": "in vivo, male Wistar rats",
  "key": {"[1]": {"system": "high-fat diet induced obese rats", "test": "Therapeutic study: high-fat diet induced obese rats treated for 12 weeks (food intake, body weight, lipid profile, fasting blood glucose, leptin, insulin, histology)", "conditions": "for average food intake (in words): therapeutic study 12 weeks, Orlistat (TO), Sibutramine (TS), extract (TC1 and TC2)", "protocol": "(§1) The crude extracts of C. latifolia were suspended in distilled water before its administration to the rat models. Orlistat and Sibutramine were used as standard drugs at doses of 100 mg/kg, and 5 mg/kg, respectively (dissolved in distilled water).\n(§2) Thirty male Wistar rats (210-220 g) were obtained from the animal house facility of Dr. Panjwani Center for Molecular Medicine and Drug Research (ICCBS). All animals were kept under standard conditions of temperature and humidity with a 12 h light/dark cycle, approved by the Ethical Committee of International Center for Chemical and Biological Sciences (Protocol number: 2013-0001). After one week of acclimation period, rats were randomly divided into […]. The control group was fed with normal diet (D12450B, Research Diets, USA), whereas the other groups were fed high-fat diet (D12451, Research Diets, USA) for a period of 16-week. After 10 weeks, biochemical parameters were evaluated regularly to establish whether the model has developed the symptoms of metabolic syndrome. […]\n(§3) Body weights were recorded weekly throughout the experiment. The food intake was calculated by using following formula, as described by Ghezzi et al, 2012: […]\n(§4) Blood glucose, serum insulin, total cholesterol, triglycerides, HDL, LDL, very low density lipoproteins […], urea, creatinine, aspartate aminotransferase […], alkaline phosphatase (ALP), serum glutamic pyruvic transaminase (SGPT), and direct and total bilirubin were estimated. Fasting blood glucose levels were measured using glucometer (AccuChek Performa, Australia). Fasting insulin levels were quantified using ultra sensitive rat insulin ELISA kit (Crystal Chem. Downers Grove, USA). Insulin sensitivity was evaluated using Homeostatic Model Assessment (HOMA). Serum total cholesterol, triglycerides, HDL, LDL, VLDL, urea, creatinine, AST, ALP, SGPT, and direct and total bilirubin were analyzed using automatic analyzer (Hitachi, Roche Diagnostics 902, Tokyo, Japan)."}, "[2]": {"system": "high-fat diet induced obese rats", "test": "Renal and liver toxicity assessment after 12 weeks of treatment period", "protocol": "Whereas for therapeutic studies the animal groups were as follow: Group 1 (TA), Control; animals in this group received LFD, and distilled water Group 2 (TC), Pathological control; animals in this group received HFD, and distilled water. Groups 3 (TO), High fat diet induced obese animals in this group received standard drug Orlistat (100 mg/kg/day). Group 4 (TS): High fat diet induced obese animals in this group received standard drug Sibutramine (5 mg/kg/day), Group 5 (TC1): High fat diet induced obese animals in this group received C. latifolia extract (150 mg/kg/day). Group 6 (FC2) High fat diet induced obese animals in this group received C. latifolia extract (300 mg/kg/day). […]\nBlood glucose, serum insulin, total cholesterol, triglycerides, HDL, LDL, very low density lipoproteins […], urea, creatinine, aspartate aminotransferase […], alkaline phosphatase (ALP), serum glutamic pyruvic transaminase (SGPT), and direct and total bilirubin were estimated. Fasting blood glucose levels were measured using glucometer (AccuChek Performa, Australia). Fasting insulin levels were quantified using ultra sensitive rat insulin ELISA kit (Crystal Chem. Downers Grove, USA). Insulin sensitivity was evaluated using Homeostatic Model Assessment (HOMA). […]"}, "[3]": {"system": "high fat diet rats", "test": "Preventive study: high fat diet rats given extract or standard drugs for 8 weeks (food intake, body weight, lipid profile, fasting blood glucose, liver histology)", "conditions": "preventive study 8 weeks", "protocol": "as §1, §2, §3, §4"}},
  "data": [
    {"smiles": "CCCCCCCCCCC[C@@H](C[C@@H]1OC(=O)[C@H]1CCCCCC)OC(=O)[C@H](CC(C)C)NC=O", "note": "[Orlistat]", "values": [
      {"measurement": "average food intake (in words)", "setting": "[1]", "value": "decrease"},
      {"measurement": "Direct bilirubin", "setting": "[2]; rat, in vivo, 100 mg/kg", "value": "0.06 ± 0.008", "unit": "mg/dL"},
      {"measurement": "FBG (fasting blood glucose)", "setting": "[3]; 100 mg/kg (PO)", "value": "79 ± 1.04", "unit": "mg/dL"}
    ]},
    {"smiles": "CC(C)CC(N(C)C)C1(c2ccc(Cl)cc2)CCC1", "note": "(centres unmarked) [Sibutramine]", "values": [
      {"measurement": "FBG (fasting blood glucose)", "setting": "[1]; after 12 weeks of treatment, 5 mg/kg (TS)", "value": "80 ± 0.12", "unit": "mg/dL"},
      {"measurement": "average food intake (in words)", "setting": "[1]", "value": "decrease"},
      {"measurement": "Direct bilirubin", "setting": "[2]; liver toxicity, after 12 weeks of treatment, 5 mg/kg (TS)", "value": "0.03 ± 0.004", "unit": "mg/dL"},
      {"measurement": "FBG (fasting blood glucose)", "setting": "[3]; 5 mg/kg (PS)", "value": "76 ± 2.12", "unit": "mg/dL"},
      {"measurement": "Triglyceride", "setting": "[3]; serum, 5 mg/kg (PS)", "value": "51 ± 0.19", "unit": "mg/dL"}
    ]}
  ]
}
